Measurements from patent US11572365B2, “Crystal form of upadacitinib, preparation method therefor, and use thereof” (CRYSTAL PHARMACEUTICAL (SUZHOU) CO., LTD., priority 2021, dated 2023).
Converted amounts (≈) assume the structure as drawn. Blank lines part the entries; values can stand above or below the compound they belong to.

How the values were obtained:
Assay type in all cases: physicochemical
[1] = Kinetic solubility in FeSSIF, FaSSIF and pH 7.4 PBS (HPLC); conditions: for solubility at 24 h / solubility at 48 h: thermodynamic from solid
Method: The method parameters of kinetic solubility test in the present disclosure are as follows:
(§1) Approximately 15-30 mg of Form CSVI in the present disclosure was suspended into 1.8 mL of FeSSIF, 1.8 mL of FaSSIF and 1.8 mL of pH=7.4 PBS. After equilibration for 24 hours and 48 hours, the concentration of upadacitinib in saturated solutions were tested by HPLC and the results are listed in Table 2.
as §1, with “CSVII” for “CSVI”, “was” for “were”, “5.” for “2.”

[2] = Stability of drug substance on storage (XRPD crystalline form, HPLC purity); conditions: for Chemical purity during storage: storage conditions of the stability test
Method: The method parameters for related substances test in the present disclosure are as follows:
(§2) Approximately 5 mg of Form CSVI in the present disclosure was stored under 40° C./75% RH and 60° C./75% RH conditions. The purity and crystalline form were tested before and after storage by HPLC and XRPD. The results are listed in Table 3 and the XRPD overlay is substantially as depicted in FIG. 4.
as §2, with “CSVII” for “CSVI”, “under 25° C./60% RH,” for “under”, “6” for “3”, “10.” for “4.”

[3] = DVS humidity cycle 0% RH-95% RH-0% RH, crystalline form by XRPD; conditions: XRPD before and after
Method: Dynamic Vapor Sorption (DVS) is measured via an SMS (Surface Measurement Systems Ltd.) intrinsic DVS instrument. Its control software is DVS-Intrinsic control software. Typical parameters for DVS test are as follows: • Temperature: 25° C. • Gas and flow rate: N2, 200 mL/min • RH range: 0% RH to 95% RH
It can be seen that Form CSVI has good stability under accelerated conditions. Form CSVI is stable for at least 1 month under 60° C./75% RH (sealed) condition. It can be seen that Form CSVI has good stability under more stressed condition as well. Approximately 10 mg of Form CSVI in the present disclosure underwent a humidity cycle of 0% RH-95% RH-0% RH with a dynamic vapor sorption (DVS) analyzer.
Approximately 10 mg of Form CSVII in the present disclosure underwent a humidity cycle of 0% RH-95% RH-0% RH with a dynamic vapor sorption (DVS) analyzer.

[4] = Crystalline form before and after formulation process (XRPD)
[5] = 40° C./75% RH, Sealed, 6 months
[6] = 25° C./60% RH, Sealed, 6 months

solubility at 24 h ([1]; FaSSIF, 37 °C, pH 6.5, fassif, FaSSIF (pH 6.5, 37° C.), 24 hours): 1870 µg/mL (≈ 4.92 mM)
solubility at 48 h ([1]; FaSSIF, 37 °C, pH 6.5, fassif, FaSSIF (pH 6.5, 37° C.), 48 hours): 1710 µg/mL (≈ 4.5 mM)
solubility at 24 h ([1]; FeSSIF, 37 °C, pH 5, fessif, FeSSIF (pH 5.0, 37° C.), 24 hours): 2200 µg/mL (≈ 5.78 mM)
solubility at 48 h ([1]; FeSSIF, 37 °C, pH 5, fessif, FeSSIF (pH 5.0, 37° C.), 48 hours): 2220 µg/mL (≈ 5.84 mM)
solubility at 24 h ([1]; PBS, 25 °C, pH 7.4, aqueous buffer, pH 7.4, 25° C., 24 hours): 880 µg/mL (≈ 2.31 mM)
solubility at 48 h ([1]; PBS, 25 °C, pH 7.4, aqueous buffer, pH 7.4, 25° C., 48 hours): 850 µg/mL (≈ 2.23 mM)
Time for which the form is stable (crystalline state unchanged) ([2]; 40° C./75% RH (open)): at least 6 months
Time for which the form is stable (crystalline state unchanged) ([2]; 40° C./75% RH (sealed)): at least 6 months
Purity ([2]; 40° C./75% RH, Open, 6 months): 99.89%
Solid form ([2]; 40° C./75% RH, Open, 6 months): Form CSVI
Purity [2, 5]: 99.92%
Solid form [2, 5]: Form CSVI
Time for which the form is stable (crystalline state unchanged) ([2]; 60° C./75% RH (sealed)): at least 1 month
Purity ([2]; 60° C./75% RH, Sealed, 1 month): 99.91%
Solid form ([2]; 60° C./75% RH, Sealed, 1 month): Form CSVI
Purity ([2]; Initial): 99.89%
Solid form ([2]; Initial): Form CSVI
Chemical purity during storage [2]: above 99.8%
Form change after DVS test [3]: no form change is observed
Physical stability after formulation procedure [4]: physically stable
Compound: CC[C@@H]1CN(C(=O)NCC(F)(F)F)C[C@@H]1c1cnc2cnc3[nH]ccc3n12 [Form CSVI, (3S,4R)-3-ethyl-4-(3H-imidazo[1,2-a]pyrrolo[2,3-e]pyrazin-8-yl)-N-(2,2,2-trifluoroethyl) pyrrolidine-1-carboxamide]

Solubility ([1]; FaSSIF (pH 6.5, 37° C.), 24 hours): 2020 µg/mL (≈ 5.31 mM)
Solubility ([1]; FaSSIF (pH 6.5, 37° C.), 48 hours): 2170 µg/mL (≈ 5.7 mM)
Solubility ([1]; FeSSIF (pH 5.0, 37° C.), 24 hours): 2280 µg/mL (≈ 5.99 mM)
Solubility ([1]; FeSSIF (pH 5.0, 37° C.), 48 hours): 2470 µg/mL (≈ 6.49 mM)
Solubility ([1]; pH 7.4, 25° C., 24 hours): 920 µg/mL (≈ 2.42 mM)
Solubility ([1]; pH 7.4, 25° C., 48 hours): 850 µg/mL (≈ 2.23 mM)
Purity ([2]; 25° C./60% RH, Open, 6 months): 99.91%
Solid form ([2]; 25° C./60% RH, Open, 6 months): Form CSVII
Purity [2, 6]: 99.92%
Solid form [2, 6]: Form CSVII
Purity [2, 5]: 99.92%
Solid form [2, 5]: Form CSVII
Purity ([2]; 60° C./75% RH, Sealed, 1 month): 99.92%
Solid form ([2]; 60° C./75% RH, Sealed, 1 month): Form CSVII
Purity ([2]; Initial): 99.92%
Solid form ([2]; Initial): Form CSVII
Chemical purity during storage [2]: above 99.9%
Form change after DVS test [3]: no form change is observed
Physical stability after formulation procedure [4]: physically stable
Compound: CC[C@@H]1CN(C(=O)NCC(F)(F)F)C[C@@H]1c1cnc2cnc3[nH]ccc3n12 [Form CSVII, (3S,4R)-3-ethyl-4-(3H-imidazo[1,2-a]pyrrolo[2,3-e]pyrazin-8-yl)-N-(2,2,2-trifluoroethyl) pyrrolidine-1-carboxamide]
